Measured values: patent US20260317314A1, “NITROGEN-CONTAINING HETEROCYCLIC COMPOUND AND USE THEREOF” (JIANGSU DEYUAN PHARMACEUTICAL CO.,LTD., priority 2023, published 2026)

Tests used:
plasma protein [1] = test: Plasma protein binding rate test, SD rat (equilibrium dialysis); type: in vitro ADME; settings: 37° C., 4 hours
Source text: (§1) The sample was thoroughly mixed.

[2] = In vivo pharmacokinetic study in cynomolgus monkeys; set-up: species or system cynomolgus monkey; settings: male cynomolgus monkeys
plasma protein [3] = test: Plasma protein binding rate test, cynomolgus monkey (equilibrium dialysis); type: in vitro ADME; settings: 37° C., 4 hours
Source text: as §1

plasma protein [4] = test: Plasma protein binding rate test, human (equilibrium dialysis); type: in vitro ADME; settings: 37° C., 4 hours
Source text: as §1

[5] = In vivo pharmacokinetics study in rats; set-up: species or system SD rat; settings: male SD rats, oral 2 mg/kg
[6] = Plasma protein binding rate test, SD rat (equilibrium dialysis); type: in vitro ADME; settings: 37° C., read-out: Plasma protein binding rate (%) in SD rats (converted)
Source text: as §1

[7] = In vitro liver microsome metabolic stability study; type: in vitro ADME; settings: human liver microsomes 0.5 mg/mL, compound 1 μM, 37° C., up to 60 minutes
Procedure: Stock solution: 10 mM in DMSO.
Only 54 μL of microsomal working solution, 6 μL of NADPH regeneration system working solution, and 180 μL of stop solution were added to the blank plate.
LC-MS/MS analysis was performed.

MDR1-MDCKII cells = test: Permeability test in MDR1-MDCKII monolayer cell model; type: in vitro ADME; settings: 2 μM, pH 7.40, 2.5 hours, 37±1° C.
Procedure: Experimental objective: The permeability and efflux ratio of the compound of the present disclosure were determined using the MDR1-MDCKII monolayer cell model to assess its membrane permeability and potential for P-gp-mediated efflux transport.
Experimental protocol: MDR1-MDCKII cells (obtained from the Netherlands Cancer Institute) were seeded in 96-well plates (obtained from Corning) at a cell density of 3.33×10^5 cells/mL and cultured for 4 to 7 days to form confluent cell monolayers. Hank's balanced salt solution containing 10 mM HEPES (pH 7.40) was used as the transport buffer. The test compound was evaluated for bidirectional transport at a concentration of 2 μM, with the DMSO concentration in the incubation system maintained below 1%. After adding the samples, the cell plate was incubated at 37±1° C., 5% CO2, and saturated humidity for 2.5 hours. All samples were quantitatively analyzed using the LC-MS/MS method. The apparent permeability coefficient (Papp, cm/s) and efflux ratio (ER) were calculated using the following formula. Apparent permeability coefficient (Papp, cm/s) was calculated using the following formula: Papp=(dCr/dt)×Vr/(A×C0). Herein, dCr/dt represents the cumulative concentration of the compound at the receiving end per unit time (μM/s); Vr is the volume of the solution at the receiving end (with solution volumes at the apical and basolateral ends being 0.075 mL and 0.250 mL, respectively); A is the relative surface area of the cell monolayer (0.143 cm^2); C0 is the initial concentration of the test substance at the dosing end (μM) or the peak area ratio of the reference substance. The efflux ratio was calculated using the following formula: ER=Papp(BA)/Papp(AB).

SMILES	Plasma protein binding rate (%) in SD rats (plasma protein [1]) [%]	T1/2 ([2]; oral 1 mg/kg) [h]	AUC0-24 h ([2]; oral 1 mg/kg, plasma) [µM·h]	Plasma protein binding rate (%) in cynomolgus monkeys (plasma protein [3]) [%]	Human plasma protein binding rate (%) (plasma protein [4])	T1/2 [5] [h]	AUC0-24 h ([5]; plasma) [µM·h]	fraction unbound at 4 h [6]	Intrinsic hepatic clearance CLint(liver) [7] [mL/min/kg]	Apparent permeability coefficient (Papp (AB)) (MDR1-MDCKII cells)	F ([2]; oral 3 mg/kg) [%]	T1/2 ([2]; oral 3 mg/kg) [h]	AUC0-24 h ([2]; oral 3 mg/kg, plasma) [µM·h]	Cmax ([2]; oral 3 mg/kg, plasma) [µM]
CCC(=O)N[C@@H]1CCCc2c(-c3cc4c(s3)N(C)C(=O)CC4)cncc21 (single isomer, unassigned) [Compound 017]	94.9	5.30	7.292	78.1	82.7	1.34	8.129							
CCC(=O)N[C@@H]1CCCc2c(-c3cc(F)c4c(ccc(=O)n4C)c3)cncc21 (single isomer, unassigned) [Compound 018]		5.35	7.586	79.5	80.9			0.08	<8.6	24.6 10^-6 cm/s				
CCC(=O)NC1CCCc2c(-c3cc4ccc(=O)n(C)c4cc3F)cncc21 (single isomer, unassigned) [Compound 019]	87.1			75.2	76.2						113	4.65	23.864	3.79
